{"source": "patent US10058598B2", "about": "“Peptides and combination of peptides for use in immunotherapy against various cancers” (immatics biotechnologies GmbH, priority 2015, dated 2018)", "key": {"HLA-A*02": {"system": "HLA-A*02", "assay": "MHC binding assay: UV-ligand exchange and beta2m ELISA, peptide exchange yield", "design": "species or system human", "conditions": "binding to HLA-A*02, UV-ligand exchange, β2m ELISA", "description": "Candidate peptides for T cell based therapies according to the present invention were further tested for their MHC binding capacity (affinity). The individual peptide-MHC complexes were produced by UV-ligand exchange, where a UV-sensitive peptide is cleaved upon UV-irradiation, and exchanged with the peptide of interest as analyzed. Only peptide candidates that can effectively bind and stabilize the peptide-receptive MHC molecules prevent dissociation of the MHC complexes. To determine the yield of the exchange reaction, an ELISA was performed based on the detection of the light chain (β2m) of stabilized MHC complexes. The assay was performed as generally described in Rodenko et al. (Rodenko et al., 2006).\n96 well MAXISorp plates (NUNC) were coated over night with 2 ug/ml streptavidin in PBS at room temperature, washed 4× and blocked forl h at 37° C. in 2% BSA containing blocking buffer. Refolded HLA-A*02:01/MLA-001 monomers served as standards, covering the range of 15-500 ng/ml. Peptide-MHC monomers of the UV-exchange reaction were diluted 100 fold in blocking buffer. Samples were incubated for 1 h at 37° C., washed four times, incubated with 2 ug/ml HRP conjugated anti-β2m for 1 h at 37° C., washed again and detected with TMB solution that is stopped with […]. Absorption was measured at 450 nm. Candidate peptides that show a high exchange yield (preferably higher than 50%, most preferred higher than 75%) are generally preferred for a generation and production of antibodies or fragments thereof, and/or T cell receptors or fragments thereof, as they show sufficient avidity to the MHC molecules and prevent dissociation of the MHC complexes."}, "[1]": {"system": "CD8+ T cells of healthy HLA-A*02+ donors", "assay": "In vitro immunogenicity: T-cell priming with aAPCs loaded with HLA-A*02/peptide complexes and anti-CD28, pMHC multimer readout", "assay_type": "cell-based, human", "conditions": "for Wells positive [%]: in vitro immunogenicity, HLA-A*02 peptides (SEQ ID No 1-251), pMHC multimer readout", "description": "FIGS. 4A to 4D show exemplary results of peptide-specific in vitro CD8+ T cell responses of a healthy HLA-A*02+ donor. CD8+ T cells were primed using artificial APCs coated with anti-CD28 mAb and HLA-A*02 in complex with SeqID No 27 peptide (FIG. 4A, left panel), SeqID No 229 peptide (FIG. 4B, left panel), SeqID No 230 peptide (FIG. 4C, left panel) and SeqID No 235 peptide (FIG. 4D, left panel), respectively. After three cycles of stimulation, the detection of peptide-reactive cells was performed by 2D multimer staining with A*02/SeqID No 27 (FIG. 4A), A*02/SeqID No 229 (FIG. 4B), A*02/SeqID No 230 (FIG. 4C) or A*02/SeqID No 235 (FIG. 4D). Right panels (FIGS. 4A, 4B, 4C and 4D) show control staining of cells stimulated with irrelevant A*02/peptide complexes. Viable singlet cells were gated for CD8+ lymphocytes. Boolean gates helped excluding false-positive events detected with multimers specific for different peptides. Frequencies of specific multimer+ cells among CD8+ lymphocytes are indicated.\nIn order to obtain information regarding the immunogenicity of the TUMAPs of the present invention, the inventors performed investigations using an in vitro T-cell priming assay based on repeated stimulations of CD8+ T cells with artificial antigen presenting cells (aAPCs) loaded with peptide/MHC complexes and anti-CD28 antibody.\nIn order to perform in vitro stimulations by artificial antigen presenting cells loaded with peptide-MHC complex (pMHC) and anti-CD28 antibody, the inventors first isolated CD8+ T cells from fresh HLA-A*02 leukapheresis products via positive selection using CD8 microbeads (Miltenyi Biotec, Bergisch-Gladbach, Germany) of healthy donors obtained from the University clinics Mannheim, Germany, after informed consent.\nPBMCs and isolated CD8+ lymphocytes were incubated in T-cell medium (TCM) until use consisting of RPMI-Glutamax (Invitrogen, Karlsruhe, Germany) supplemented with 10% heat inactivated human AB serum (PAN-Biotech, Aidenbach, Germany), 100 U/ml Penicillin/100 μg/ml Streptomycin (Cambrex, Cologne, Germany), 1 mM sodium pyruvate (CC Pro, Oberdorla, Germany), 20 μg/ml Gentamycin (Cambrex). 2.5 ng/ml IL-7 (PromoCell, Heidelberg, Germany) and 10 U/ml IL-2 (Novartis Pharma, Nurnberg, Germany) were also added to the TCM at this step.\nGeneration of pMHC/anti-CD28 coated beads, T-cell stimulations and readout was performed in a highly defined in vitro system using four different pMHC molecules per stimulation condition and 8 different pMHC molecules per readout condition.\nThe purified co-stimulatory mouse IgG2a anti human CD28 Ab 9.3 (Jung et al., 1987) was chemically biotinylated using Sulfo-N-hydroxysuccinimidobiotin as recommended by the manufacturer (Perbio, Bonn, Germany). Beads used were 5.6 μm diameter streptavidin coated polystyrene particles (Bangs Laboratories, IIIinois, USA).\npMHC used for positive and negative control stimulations were A*0201/MLA-001 (peptide […] (SEQ ID NO. 303) from modified Melan-A/MART-1) and A*0201/DDX5-001 ([…] from DDX5, SEQ ID NO. 304), respectively.\n800.000 beads/200 μl were coated in 96-well plates in the presence of 4×12.5 ng different biotin-pMHC, washed and 600 ng biotin anti-CD28 were added subsequently in a volume of 200 μl. Stimulations were initiated in 96-well plates by co-incubating […] CD8+ T cells with 2×10^5 washed coated beads in 200 μl TCM supplemented with 5 ng/ml IL-12 (PromoCell) for 3 days at 37° C. Half of the medium was then exchanged by fresh TCM supplemented with 80 U/ml IL-2 and incubating was continued for 4 days at 37° C. This stimulation cycle was performed for a total of three times. For the pMHC multimer readout using 8 different pMHC molecules per condition, a two-dimensional combinatorial coding approach was used as previously described (Andersen et al., 2012) with minor modifications encompassing coupling to 5 different fluorochromes. […]"}}}
{"substance": "12 (GLLPLLHRA; listed as Homo sapiens) [compound 12]", "values": [{"measurement": "Peptide exchange", "setting": "HLA-A*02", "result": "++++ (> = 75% = ++++)"}, {"measurement": "Wells positive [%]", "setting": "[1]", "result": "++++ (> = 70% = ++++)"}]}
{"substance": "4 (KLMPGTYTL; listed as Homo sapiens) [compound 4]", "values": [{"measurement": "Peptide exchange", "setting": "HLA-A*02", "result": "++++ (> = 75% = ++++)"}, {"measurement": "Wells positive [%]", "setting": "[1]", "result": "+ (<20% = +)"}]}
{"substance": "249 (GLCERLVSL; listed as Homo sapiens) [compound 249]", "values": [{"measurement": "Peptide exchange", "setting": "HLA-A*02", "result": "++++ (> = 75% = ++++)"}, {"measurement": "Wells positive [%]", "setting": "[1]", "result": "+ (<20% = +)"}]}
{"substance": "290 (KIVDFSYSV; listed as Homo sapiens) [compound 290]", "values": [{"measurement": "in vitro immunogenicity, Wells", "setting": "[1]; HLA-A*02 peptides, share of positive wells", "result": "++ (20%-49% = ++)"}]}
